From patent publication US8299100B2, “Potent and selective neuronal nitric oxide synthase inhibitors with improved membrane permeability” (Northwestern University, priority 2009, dated 2012)
Read-outs that look alike come from different tables or passages of the source.

Tests used:
nNOS = nNOS (Rattus norvegicus, UniProt P29476); experiment: cell-based assay of inhibitor potency (membrane permeability); conditions: for IC50: Table 3, cell-based assay; for increase in cell membrane permeation: relative to 1, from IC50/IC50(cell)
Source text: This assay can provide valuable data about membrane permeability.

murine macrophage iNOS = murine macrophage iNOS (Mus musculus, UniProt P29477); experiment: NOS hemoglobin capture assay, purified recombinant enzyme (iNOS); conditions: for selectivity n/i: ratio of Ki (iNOS) to Ki (nNOS)
Procedure: (§1) The three isozymes were recombinant enzymes, which were overexpressed (in E. coli) and isolated as reported. The formation of nitric oxide was measured using a hemoglobin capture assay described previously.
(§2) The three isozymes were recombinant enzymes, which were overexpressed (in E. coli) and isolated as reported. The formation of nitric oxide was measured using a hemoglobin capture assay described previously. […] The corresponding Ki values of inhibitors were calculated from the IC50 values using equation 1 with known Km values, as above.

rat nNOS = rat nNOS (Rattus norvegicus, UniProt P29476); experiment: NOS hemoglobin capture assay, purified recombinant enzyme (nNOS)
Procedure: as §1, §2

bovine eNOS = bovine eNOS (Bos taurus, UniProt P29473); experiment: NOS hemoglobin capture assay, purified recombinant enzyme (eNOS); conditions: for selectivity n/e: ratio of Ki (eNOS) to Ki (nNOS)
Procedure: as §1, §2

[1] = read-out: Ki nNOS, Table 4, Ki calculated from measured IC50, 10 μM L-arginine

| SMILES | IC50 (nNOS) | increase in cell membrane permeation (nNOS) | Ki (murine macrophage iNOS) | Ki (rat nNOS) | Ki (bovine eNOS) | selectivity n/i (murine macrophage iNOS; Table 4) | selectivity n/e (bovine eNOS; Table 4) | further results |
| --- | --- | --- | --- | --- | --- | --- | --- | --- |
| Cc1cc(N)nc(CC2CNCC2OCCNC2CC2c2cccc(F)c2)c1 [Compound 2b, 6-(((3S,4S)/(3R,4R)-4-(2-(2-(3-Fluorophenyl)cyclopropylamino)ethoxy)pyrrolidin-3-yl)methyl)-4-methylpyridin-2-amine] | 9 µM | 2.4 fold | 11 µM | 0.046 µM | 68 µM | – | – | IC50/IC50(cell) × 10^−2 (nNOS; ratio of purified nNOS IC50 to cell-based IC50, indicates relative membrane permeability): 4.4 × 10^−2; selectivity n/i (murine macrophage iNOS; Table 2): 220; IC50 (rat nNOS): 0.4 µM; selectivity n/e (bovine eNOS; Table 2): 1500 |
| CC1CC(N)=NC(C[C@@H]2CNC[C@@H]2OCCNCC(F)(F)c2ccccc2)C1 (stereo partly drawn) [Compound 2e] | – | – | 26 µM | 0.17 µM | 130 µM | 150 | 770 | better binding to iNOS (murine macrophage iNOS; compared to 2dd): more than 3 fold; drop in potency against nNOS (rat nNOS; compared to 2dd): 2 fold |
| Cc1cc(N)nc(C[C@H]2CNC[C@H]2OCCNCC(F)(F)c2cccc(F)c2)c1 [Compound 2da] | – | – | 130 µM | 0.39 µM | 110 µM | – | – | loss of potency (nNOS) (rat nNOS; compared to racemic 2d): five-fold less potent |
| Cc1cc(N)nc(CC2CNCC2OCCNCC(F)c2cccc(F)c2)c1 [Compound 2c, 6-(((3S,4S)/(3R,4R)-4-(2-(2-Fluoro-2-(3-fluorophenyl)propylamino)ethoxy)pyrrolidin-3-yl)methyl)-4-methylpyridin-2-amine] | 10 µM | 1.7 fold | – | – | – | – | – | – |
| Cc1cc(N)nc(C[C@H]2CNC[C@H]2OCCNCC(F)(F)C2CCCCN2)c1 (stereo partly drawn) [Compound 2f] | – | – | 450 µM | 2.7 µM | 64 µM | 170 | 24 | – |
| Cc1cc(N)nc(C[C@@H]2CNC[C@@H]2OCCNCC(F)(F)c2ccc(F)cc2)c1 [Compound 2dc] | – | – | – | – | – | 1200 | 190 | Ki (murine macrophage iNOS; read-out: Ki iNOS, Table 4, Ki calculated from measured IC50, 10 μM L-arginine): 190 µM; loss of potency (nNOS) (rat nNOS; compared to 2db): 4.5 fold; Ki (rat nNOS; [1]): 0.16 µM; Ki (bovine eNOS; read-out: Ki eNOS, Table 4, Ki calculated from measured IC50, 10 μM L-arginine): 31 µM |
| Cc1cc(N)nc(CC2CNCC2OCCNCC(F)(F)c2cccc(F)c2)c1 [Compound 2d, 6-(((3S,4S)/(3R,4R)-4-(2-(2,2-Difluoro-2-(3-fluorophenypethylamino)ethoxy)pyrrolidin-3-yemethyl)-4-methylpyridin-2-amine] | 19 µM | 2.0 fold | – | – | – | – | – | IC50 (rat nNOS; Table 3, purified enzyme assay (nNOS)): 0.7 µM; Ki (rat nNOS; read-out: Ki nNOS, Table 2, Ki calculated from measured IC50, 10 μM L-arginine): 0.08 µM; Ki (rat nNOS; [1]): 0.08 µM; drop in potency (nNOS) (rat nNOS; relative to 2c): 2.2 fold |
| Cc1cc(N)nc(C[C@@H]2CNC[C@@H]2OCCNCC(F)(F)c2cccc(F)c2)c1 [Compound 2db] | – | – | 51 µM | 0.036 µM | 140 µM | – | – | lower Ki (nNOS) (rat nNOS; 2db compared to 2da): 10 fold |
| Cc1cc(N)nc(C[C@@H]2CNC[C@@H]2OCCNCC(F)(F)c2ccccc2)c1 [Compound 2dd] | – | – | 85 µM | 0.085 µM | – | – | – | – |
